We go through 13 compounds from patent publication US7037909B2, “Tetracyclic compounds as c-Met inhibitors” (Sugen, Inc., priority 2003, dated 2006).

This test has as its target T1, c-MET (Homo sapiens, UniProt P08581).
T1 construct: Purified GST fusion protein containing the Met kinase domain, Sugen, Inc
The experiment in a line: MET Transphosphorylation Assay (ELISA, poly(Glu,Tyr) 4:1 substrate). Format: biochemical. On the procedure: MET Transphosphorylation Assay
This assay is used to measure phosphotyrosine levels on a poly(glutamic acid:tyrosine (4:1)) substrate as a means for identifying agonists/antagonists of met transphosphorylation of the substrate.
• 1. […] PBS, Gibco Catalog #450-1300EB • 4. 50 mM HEPES • 5. […] Purified GST fusion protein containing the Met kinase domain, Sugen, Inc. • 7. TBST Buffer. • 8. 10% aqueous (MilliQue H2O) DMSO. • 9. […] 2× Kinase Dilution Buffer: for 100 ml, mix 10 mL 1M HEPES at pH 7.5 with 0.4 mL 5% BSA/PBS, 0.2 mL 0.1M sodium orthovanadate and 1 mL 5M sodium chloride in 88.4 mL dH2O. • 11. 4× ATP Reaction Mixture: for 10 mL, mix 0.4 mL 1M manganese chloride and 0.02 mL 0.1M ATP in 9.56 mL dH2O. • 12. 4× Negative Controls Mixture: for 10 mL, mix 0.4 mL 1M manganese chloride in 9.6 mL dH2O. • 13. […] 500 mM EDTA. • 15. Antibody Dilution Buffer: for 100 mL, mix 10 mL 5% BSA/PBS, 0.5 mL 5% Carnation Instant Milk® in PBS and 0.1 mL 0.1M sodium orthovanadate in 88.4 mL TBST. • 16. Rabbit polyclonal antophosphotyrosine antibody, Sugen, Inc. • 17. Goat anti-rabbit horseradish peroxidase conjugated antibody, Biosource, Inc. • 18. ABTS Solution: for 1 L, mix 19.21 g citric acid, 35.49 g Na2HPO4 and 500 mg ABTS with sufficient dH2O to make 1 L. • 19. ABTS/H2O2: mix 15 mL ABST solution with 2 μL H2O2 five minutes before use. • 20. 0.2M HCl Procedure: • 1. Coat ELISA plates with 2 μg Poly(Glu-Tyr) in 100 μL PBS, store overnight at 4° C. • 2. Block plate with 150 μL of 5% BSA/PBS for 60 min. • 3. Wash plate twice with PBS, once with 50 mM Hepes buffer pH 7.4. • 4. Add 50 μl of the diluted kinase to all wells. (Purified kinase is diluted with Kinase Dilution Buffer. Final concentration should be 10 ng/well.) • 5. Add 25 μL of the test compound (in 4% DMSO) or DMSO alone (4% in dH2O) for controls to plate. • 6. Incubate the kinase/compound mixture for 15 minutes. • 7. Add 25 μL of 40 mM MnCl2 to the negative control wells. • 8. Add 25 μL ATP/MnCl2 mixture to the all other wells (except the negative controls). Incubate for 5 min. • 9. Add 25 μL 500 mM EDTA to stop reaction. • 10. Wash plate 3× with TBST. • 11. Add 100 μL rabbit polyclonal anti-Ptyr diluted 1:10,000 in Antibody Dilution Buffer to each well. Incubate, with shaking, at room temperature for one hour. • 12. Wash plate 3× with TBST. • 13. Dilute Biosource HRP conjugated anti-rabbit antibody 1: 6,000 in Antibody Dilution buffer. Add 100 μL per well and incubate at room temperature, with shaking, for one hour. • 14. Wash plate 1× with PBS. • 15. Add 100 μl of ABTS/H2O2 solution to each well. • 16. If necessary, stop the development reaction with the addition of 100 μl of 0.2M HCl per well. • 17. […]

Where [1] appears, read: purified GST fusion protein containing the Met kinase domain, poly(glu, tyr) 4:1 substrate, read-out: c-MET IC50.

SMILES strings stand for the structures. Read-outs that look alike come from different tables or passages of the source.

T1 sequence (P08581 1078-1345 limits assumed): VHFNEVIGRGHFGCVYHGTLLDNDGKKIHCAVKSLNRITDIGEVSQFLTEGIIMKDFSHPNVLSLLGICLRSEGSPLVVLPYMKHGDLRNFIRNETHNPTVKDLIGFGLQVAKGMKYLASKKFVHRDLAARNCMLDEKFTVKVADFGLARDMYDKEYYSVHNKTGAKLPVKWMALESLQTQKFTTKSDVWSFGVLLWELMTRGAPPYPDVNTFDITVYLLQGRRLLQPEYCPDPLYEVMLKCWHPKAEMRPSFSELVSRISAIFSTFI

As usually defined, the IC50 is the midpoint of a concentration-inhibition curve. With `Oc1ccc(Cc2nnc3nc4[nH]c5ccccc5c4nn23)cc1` [Example 17, 4-(9H-1,2,3a,4,9,10-Hexaaza-cyclopenta[b]fluoren-3-ylmethyl)-phenol], the IC50 under setting [1] is 18 nM. As for `Oc1ccc(Cc2nnc3nc4[nH]c5c(Cl)ccc(Cl)c5c4nn23)cc1` [Example 18, 4-(5,8-Dichloro-9H-1,2,3a,4,9,10-hexaaza-cyclopenta[b]fluoren-3-ylmethyl)-phenol], under setting [1], the IC50 amounted to 36 nM. Compound `COc1ccc2[nH]c3nc4nnc(Cc5ccc(O)cc5)n4nc3c2c1Cl` [Example 19, 4-(5-Chloro-6-methoxy-9H-1,2,3a,4,9,10-hexaaza-cyclopenta[b]fluoren-3-ylmethyl)-phenol] had an IC50 of 12 nM. As for `COc1cc(Cl)c2[nH]c3nc4nnc(Cc5ccc(O)cc5)n4nc3c2c1Cl` [Example 20, 4-(5,8-Dichloro-6-methoxy-9H-1,2,3a,4,9,10-hexaaza-cyclopenta[b]fluoren-3-ylmethyl)-phenol], the IC50 under setting [1] came to 46 nM.

Turning to `Oc1ccc(Cc2nnc3nc4[nH]c5cccc(Cl)c5c4nn23)cc1` [Example 21, 4-(5-Chloro-9H-1,2,3a,4,9,10-hexaaza-cyclopenta[b]fluoren-3-ylmethyl)-phenol], the IC50 under setting [1] stood at 10 nM. For the compound `Oc1ccc(Cc2nnc3nc4[nH]c5c(Cl)cccc5c4nn23)cc1` [Example 22, 4-(8-Chloro-9H-1,2,3a,4,9,10-hexaaza-cyclopenta[b]fluoren-3-ylmethyl)-phenol], under setting [1], the IC50 was found to be 35 nM.

Consider `Oc1ccc(Cc2nnc3nc4[nH]c5c(Cl)cc(Cl)c(Cl)c5c4nn23)cc1` [Example 23, 4-(5,6,8-Trichloro-9H-1,2,3a,4,9,10-hexaaza-cyclopenta[b]fluoren-3-ylmethyl)-phenol], for which, under setting [1], the IC50 was found to be 460 nM.

For the compound `Cc1ccc(C)c2c1[nH]c1nc3nnc(Cc4ccc(O)cc4)n3nc12` [Example 24, 4-(5,8-Dimethyl-9H-1,2,3a,4,9,10-hexaaza-cyclopenta[b]fluoren-3-ylmethyl)-phenol, dihydrate], under setting [1], the IC50 was determined as 22 nM. As to `Cc1cc(C)c2[nH]c3nc4nnc(Cc5ccc(O)cc5)n4nc3c2c1` [Example 25, 4-(6,8-Dimethyl-9H-1,2,3a,4,9,10-hexaaza-cyclopenta[b]fluoren-3-ylmethyl)-phenol], the IC50 under setting [1] came to 55 nM. For `Cc1cc(Cl)cc2c1[nH]c1nc3nnc(Cc4ccc(O)cc4)n3nc12` [Example 26, 4-(6-Chloro-8-methyl-9H-1,2,3a,4,9,10-hexaaza-cyclopenta[b]fluoren-3-ylmethyl)-phenol], the IC50 under setting [1] came out at 25 nM. On the same count and under the same terms, in the case of `N[C@H]1CCN(C(=O)c2ccc3[nH]c4nc5nnc(Cc6ccc(F)cc6)n5nc4c3c2Cl)C1` [Example 34, [(3S)-3-Amino-pyrrolidin-1-yl]-[5-chloro-3-(4-fluoro-benzyl)-9H-1,2,3a,4,9,10-hexaaza-cyclopenta[b]fluoren-6-yl]-methanone] it was 42 nM; in that of `Cc1cc(OCCN2CCOCC2)c(C)c2c1[nH]c1nc3nnc(Cc4ccc(O)cc4)n3nc12` [Example 35, 4-[5,8-Dimethyl-6-(2-morpholin-4-yl-ethoxy)-9H-1,2,3a,4,9,10-hexaaza-cyclopenta[b]fluoren-3-ylmethyl]-phenol], 28 nM. The same measure, in the same setting: next, `Cc1cc(OCCN2CCOCC2)c(C)c2c1[nH]c1nc3nnc(Cc4ccc(F)cc4)n3nc12` [Example 36, 3-(4-Fluoro-benzyl)-5,8-dimethyl-6-(2-morpholin-4-yl-ethoxy)-9H-1,2,3a,4,9,10-hexaaza-cyclopenta[b]fluorine]: 560 nM.
